# Data as given in patent publication US20240199676A1, “ANTIVIRAL COMPOUNDS AND METHODS OF MAKING AND USING THE SAME” (Gilead Sciences, Inc., priority 2022, published 2024).
# Experiments:
# Type in all cases: cell-based
# [1] = system: Human Rhinovirus 14 (HRV14) in H1-HeLa cells; experiment: H1-HeLa HRV-CTG 384-well Assay (Ex. Y), HRV14; settings: Rhinovirus B, 96 h; H1-HeLa cells, HRV14 MOI 1.0, 4 days, Celltiter-Glo; read-out: EC50 H1-HeLa_HRV14_HRV-CTG 384-well Assay (per Ex Y)
# Description: (§1) Example Y: H1-HeLa HRV-CTG 384-well Assay
# (§2) H1-Hela cell line (ATCC, Manassas, VA, Cat #CRL-1958) was maintained in Dulbecco's […] (DMEM) (Corning, New York, NY, Cat #15-018CM) supplemented with 10% fetal bovine serum (FBS) (Hyclone, Logan, UT, Cat #SH30071-03), and 1× Penicillin-Streptomycin-L-Glutamine (Corning, New York, NY, Cat #30-009-CI). Cells were passaged 2 times per week to maintain sub-confluent densities and were used for experiments at passage 5-30. The Human Rhinovirus 1B (HRV1B) (ATCC, Manassas, VA, Cat #VR-1645) , Human Rhinovirus 14 (HRV14) (ATCC, Manassas, VA, Cat #VR-284), and Human Rhinovirus 16 (HRV16) (ATCC, Manassas, VA, Cat #BR-283) was obtained through ATCC. Viral infection was monitored by determining viability of H1-HeLa cells as described below.
# (§3) Test molecules are prepared in 100% DMSO in 384-well polypropylene plates (Greiner, Monroe, NC, Cat #784201) with 8 compounds per plate in grouped replicates of 4 at 10 serially diluted concentrations (1:3). The serially diluted compounds were transferred to low dead volume Echo plates (Labcyte, Sunnyvale, CA, Cat #LP-0200).
# (§4) The test compounds were spotted to 384-well assay plates (Greiner, Monroe, NC, Cat#781091) at 200 nL per well using an Echo acoustic dispenser (Labcyte, Sunnyvale, CA). H1-HeLa cells were harvested and suspended in DMEM (supplemented with 2% FBS and 1× Penicillin-Streptomycin-L-Glutamine) and seeded to the pre-spotted assay plates at 5,000 cells per well in 30 μL. HRV1B, HRV14, and HRV16 was diluted in DMEM (supplemented with 2% FBS and 1× Penicillin-Streptomycin-L-Glutamine) at 97.1 million Infectious Units (IU) per mL, 151 million IU per mL and 221 million IU per mL respectively. 10 μL of virus per well was added to the assay plates containing cells and compounds, for an MOI of 0.5, 1.0, and 0.25 respectively. The assay plates were incubated for 4 days at 37° C. and 5% CO2. At the end of incubation, Celltiter-Glo (Promega, Madison, WI, Cat #(Ga7573) was prepared. The assay plates and Celltiter-Glo reagent were equilibrated to room temperature for at least 15 minutes. 40 μL per well of Celltiter-Glo reagent was added and the plates were incubated at room temperature for 15 minutes before reading the luminescence signal on an EnVision multimode plate reader (Perkin Elmer, Waltham, MA). Rupintrivir was used as positive control and DMSO was used as negative control. Values were normalized to the positive and negative controls (as 0% and 100% replication, respectively) and data was fitted using non-linear regression analysis by Gilead's dose response tool. The EC50 value for each compound was defined as the concentration reducing viral replication by 50%.
# [2] = system: Human Rhinovirus 1B (HRV1B) in H1-HeLa cells; experiment: H1-HeLa HRV-CTG 384-well Assay (Ex. Y), HRV1B; settings: Rhinovirus A, 96 h; H1-HeLa cells, HRV1B MOI 0.5, 4 days, Celltiter-Glo; read-out: EC50 H1-HeLa_HRV1B_HRV-CTG 384-well Assay (per Ex. Y)
# Description: as §1, §2, §3, §4
# [3] = system: Human Rhinovirus 16 (HRV16) in H1-HeLa cells; experiment: H1-HeLa HRV-CTG 384-well Assay (Ex. Y), HRV16; settings: Rhinovirus A, 96 h; H1-HeLa cells, HRV16 MOI 0.25, 4 days, Celltiter-Glo; read-out: EC50 H1-HeLa_HRV16_HRV-CTG 384-well Assay (per Ex. Y)
# Description: as §1, §2, §3, §4
# [4] = system: Respiratory syncytial virus recombinant with luciferase (RSV-Luc5) in HEp-2 cells; experiment: HEp-2 RSV-Luc5 384-well Assay (EC50 RSVFLUC Hep2-384 v2, Ex. V); settings: human respiratory syncytial virus, HEp-2, 72 h, read-out: EC50 RSV FLuc Hep-2 384 V2 (per Ex. V)
# Description: Example V: HEp-2 RSV-Luc5 384-well Assay (EC50 RSVFLUC Hep2-384 v2)
# HEp-2 cell line was purchased from ATCC (Manassas, VA Cat #CCL-23) and maintained in Dulbecco's […] (DMEM) (Corning, New York, NY, Cat #15-018CM) supplemented with 10% fetal bovine serum (FBS) (Hyclone, Logan, UT, Cat #SH30071-03) and 1× Penicillin-Streptonycin-L-Glutamine (Corning, New York, NY, Cat #30-009-CI). Cells were passaged 2 times per week to maintain sub-confluent densities and were used for experiments at passage 5-20. Respiratory syncytial virus recombinant with luciferase (RSV-Luc5) (≥1 ×107 TCID50/ml) was purchased from Microbiologics (Saint Cloud, MN). Viral replication was determined in HEp-2 cells in the following manner.
# as §3, with “Compounds” for “Test molecules”
# The test compounds were spotted to 384-well assay plates (Greiner, Monroe, NC, Cat#781091) at 200 nL per well. HEp-2 cells were harvested and suspended in DMEM (supplemented with 10% FBS and 1× Penicillin-Streptonycin-L-Glutamine) and seeded to the pre-spotted assay plates at 4,000 cells per well in 30 μL. RSV-Luc5 viruses were diluted in DMEM (supplemented with 10% FBS and 1× Penicillin-Streptomycin-L-Glutamine) at 200,000 Infectious Units (IU) per mL and 10 μL per well was added to the assay plates containing cells and compounds, for an MOI=0.5. The assay plates were incubated for 3 days at 37° C. and 5% CO2. At the end of incubation, One-Glo reagent (Promega, Madison, WI, Cat #E6120) was prepared. The assay plates and One-Glo reagent were equilibrated to room temperature for at least 15 minutes. 40 μL per well of One-Glo reagent was added and the plates were incubated at room temp for 15 minutes before reading the luminescence signal on an EnVision multimode plate reader (Perkin Elmer, Waltham, MA). Remdesivir was used as positive control and DMSO was used as negative control. Values were normalized to the positive and negative controls (as 0% and 100% replication, respectively) and data was fitted using non-linear regression analysis by Gilead's dose response tool. The EC50 value for each compound was then determined as the concentration reducing the viral replication by 50%.
compound,measurement,setting,value
"CC[C@@H](C)C(=O)OC[C@@]1(C#N)O[C@@H](c2ccc3c(N)ncnn23)[C@H](O)[C@@H]1O [Compound 37, ((2R,3S,4R,5S)-5-(4-aminopyrrolo[2,1-f][1,2,4]triazin-7-yl)-2-cyano-3,4-dihydroxytetrahydrofuran-2-yl)methyl (R)-2-methylbutanoate]",EC50,[1],11.9 µM
same,EC50,[2],5.71 µM
same,EC50,[3],9.78 µM
same,EC50,[4],14.8 µM
"CCC(CC)C(=O)OC[C@@]1(C#N)O[C@@H](c2ccc3c(N)ncnn23)[C@H](O)[C@@H]1O [Compound 9, ((2R,3S,4R,5S)-5-(4-aminopyrrolo[2,1-f][1,2,4]triazin-7-yl)-2-cyano-3,4-dihydroxytetrahydrofuran-2-yl)methyl 2-ethylbutanoate]",EC50,[1],15.5 µM
same,EC50,[2],21.6 µM
same,EC50,[3],35.1 µM
same,EC50,[4],28.9 µM
"CC1(CC(=O)OC[C@@]2(C#N)O[C@@H](c3ccc4c(N)ncnn34)[C@H](O)[C@@H]2O)CCC1 [Compound 33, ((2R,3S,4R,5S)-5-(4-aminopyrrolo[2,1-f][1,2,4]triazin-7-yl)-2-cyano-3,4-dihydroxytetrahydrofuran-2-yl)methyl 2-(1-methylcyclobutyl)acetate]",EC50,[1],20.8 µM
same,EC50,[2],35.1 µM
same,EC50,[3],50 µM
same,EC50,[4],23.4 µM
"CC(C)(C)CCC(=O)OC[C@@]1(C#N)O[C@@H](c2ccc3c(N)ncnn23)[C@H](O)[C@@H]1O [Compound 36, ((2R,3S,4R,5S)-5-(4-aminopyrrolo[2,1-f][1,2,4]triazin-7-yl)-2-cyano-3,4-dihydroxytetrahydrofuran-2-yl)methyl 4,4-dimethylpentanoate]",EC50,[1],6.51 µM
same,EC50,[2],3.1 µM
same,EC50,[3],8.03 µM
same,EC50,[4],11.8 µM
"N#C[C@]1(COC(=O)C2CCCCC2)O[C@@H](c2ccc3c(N)ncnn23)[C@H](O)[C@@H]1O [Compound 19, ((2R,3S,4R,5S)-5-(4-aminopyrrolo[2,1-f][1,2,4]triazin-7-yl)-2-cyano-3,4-dihydroxytetrahydrofuran-2-yl)methyl cyclohexanecarboxylate]",EC50,[1],6.84 µM
same,EC50,[2],4.11 µM
same,EC50,[3],9.23 µM
same,EC50,[4],18 µM
"N#C[C@]1(COC(=O)C2CCCC2)O[C@@H](c2ccc3c(N)ncnn23)[C@H](O)[C@@H]1O [Compound 18, ((2R,3S,4R,5S)-5-(4-aminopyrrolo[2,1-f][1,2,4]triazin-7-yl)-2-cyano-3,4-dihydroxytetrahydrofuran-2-yl)methyl cyclopentanecarboxylate]",EC50,[1],6.93 µM
same,EC50,[2],3.03 µM
same,EC50,[3],8.01 µM
same,EC50,[4],23.3 µM
"N#C[C@]1(COC(=O)c2ccccc2)O[C@@H](c2ccc3c(N)ncnn23)[C@H](O)[C@@H]1O [Compound 2, ((2R,3S,4R,5S)-5-(4-aminopyrrolo[2,1-f][1,2,4]triazin-7-yl)-2-cyano-3,4-dihydroxytetrahydrofuran-2-yl)methyl benzoate]",EC50,[1],23.9 µM
same,EC50,[2],9.6 µM
same,EC50,[3],28.3 µM
same,EC50,[4],36.8 µM
"CC(=O)OC[C@@]1(C#N)O[C@@H](c2ccc3c(N)ncnn23)[C@H](OC(C)=O)[C@@H]1OC(C)=O [Compound 28, (2R,3S,4S,5S)-2-(acetoxymethyl)-5-(4-aminopyrrolo[2,1-f][1,2,4]triazin-7-yl)-2-cyanotetrahydrofuran-3,4-diyl diacetate]",EC50,[1],19.8 µM
same,EC50,[2],9.45 µM
same,EC50,[3],23.9 µM
same,EC50,[4],15.9 µM
"CC1(C(=O)OC[C@@]2(C#N)O[C@@H](c3ccc4c(N)ncnn34)[C@H](O)[C@@H]2O)CC1 [Compound 15, ((2R,3S,4R,5S)-5-(4-aminopyrrolo[2,1-f][1,2,4]triazin-7-yl)-2-cyano-3,4-dihydroxytetrahydrofuran-2-yl)methyl 1-methylcyclopropane-1-carboxylate]",EC50,[1],50 µM
same,EC50,[2],22.8 µM
same,EC50,[3],31.1 µM
same,EC50,[4],31.6 µM
"CC(C)(C)CC(=O)OC[C@@]1(C#N)O[C@@H](c2ccc3c(N)ncnn23)[C@H](O)[C@@H]1O [Compound 13, ((2R,3S,4R,5S)-5-(4-aminopyrrolo[2,1-f][1,2,4]triazin-7-yl)-2-cyano-3,4-dihydroxytetrahydrofuran-2-yl)methyl 3,3-dimethylbutanoate]",EC50,[1],50 µM
same,EC50,[2],50 µM
same,EC50,[3],50 µM
same,EC50,[4],50 µM
"CC(=O)OC[C@@]1(C#N)O[C@@H](c2ccc3c(N)ncnn23)[C@H](O)[C@@H]1O [Compound 4, ((2R,3S,4R,5S)-5-(4-aminopyrrolo[2,1-f][1,2,4]triazin-7-yl)-2-cyano-3,4-dihydroxytetrahydrofuran-2-yl)methyl acetate]",EC50,[1],4.61 µM
same,EC50,[2],6.38 µM
same,EC50,[3],10.1 µM
same,EC50,[4],15.7 µM
"N#C[C@]1(COC(=O)C2CCC2)O[C@@H](c2ccc3c(N)ncnn23)[C@H](O)[C@@H]1O [Compound 8, ((2R,3S,4R,5S)-5-(4-aminopyrrolo[2,1-f][1,2,4]triazin-7-yl)-2-cyano-3,4-dihydroxytetrahydrofuran-2-yl)methyl cyclobutanecarboxylate]",EC50,[1],5.66 µM
same,EC50,[2],3.34 µM
same,EC50,[3],7.74 µM
same,EC50,[4],14.9 µM
"[H]/N=c1/c2ccc([C@@H]3O[C@](C#N)(CO)[C@@H](O)[C@H]3O)n2ncn1COC(=O)C(C)C [Compound 34, (7-((2S,3R,4S,5R)-5-cyano-3,4-dihydroxy-5-(hydroxymethyl)tetrahydrofuran-2-yl)-4-iminopyrrolo[2,1-f][1,2,4]triazin-3(4H)-yl)methyl isobutyrate]",EC50,[1],50 µM
same,EC50,[2],28.7 µM
same,EC50,[3],50 µM
same,EC50,[4],> 50 µM
